Laboratory results published in ChEMBL document CHEMBL4665852, “Hydroxylated Ethacrylic and Tiglic Acid Derivatives from the Stems and Branches of Enkianthus chinensis and Their Potential Anti-inflammatory Activities” (J Nat Prod, 2020).

Legend:
Peritoneal macrophage [1] = experiment: Antiinflammatory activity in C57BL/6J mouse peritoneal macrophages assessed as inhibition of LPS-induced NO production at 10 uM preincubated for 1 hrs followed by LPS-stimulation and measured after 24 hrs by Griess reagent-based assay relative to control; format: functional; conditions: time 25 hrs
Peritoneal macrophage [2] = experiment: Antiinflammatory activity in C57BL/6J mouse peritoneal macrophages assessed as inhibition of LPS-induced NO production preincubated for 1 hrs followed by LPS-stimulation and measured after 24 hrs by Griess reagent-based assay relative to control; format: functional, cell-based
Peritoneal macrophage [3] = experiment: Cytotoxicity against C57BL/6J mouse Peritoneal macrophages assessed as reduction in cell growth incubated for 1 hr; format: cell-based

IC50 (Peritoneal macrophage [2]) [µM]	Compound	inhibition at 10 µM (Peritoneal macrophage [1]) [%]	Activity (Peritoneal macrophage [3])
1.2	C/C=C(\CO)C(=O)OC/C(=C\CO)C(=O)OC	84.9	Non-Toxic
2.9	CC[C@](O)(C(=O)OC/C(=C\CO)C(=O)OC)[C@@H](C)O	64.3	Non-Toxic
